Bridge positions count the residues as written; N and C are the ends. Square brackets hold non-standard residues; d marks the D form. Peptide text beside a SMILES is read from it. * marks the point of attachment. 2Nal = N[C@@H](Cc1ccc2ccccc2c1)C(=O)O; Benzoyl(4-F) = O=C(c1ccc(F)cc1)*; Cit = NC(=O)NCCC[C@H](N)C(=O)O
Legend:
CXCR4 receptor = target: T1, CXCR4 receptor (Homo sapiens, UniProt P61073); experiment: Inhibition of 125I-CXCL12 binding to CXCR4 receptor on Jurkat cells; settings: Table 1, 125I-CXCL12, 1 hour at room temperature, compounds as acetate salt, read-out: IC50 (nM), inhibitory activity against CXCL12 binding to CXCR4 receptor
T1 construct: 50 μL of Jurkat human T-cell leukemia cells (6×10^6 cells/mL) suspended in buffer; endogenous in cells; host or cells: Jurkat human T-cell leukemia cells
T1 sequence (P61073 whole entry): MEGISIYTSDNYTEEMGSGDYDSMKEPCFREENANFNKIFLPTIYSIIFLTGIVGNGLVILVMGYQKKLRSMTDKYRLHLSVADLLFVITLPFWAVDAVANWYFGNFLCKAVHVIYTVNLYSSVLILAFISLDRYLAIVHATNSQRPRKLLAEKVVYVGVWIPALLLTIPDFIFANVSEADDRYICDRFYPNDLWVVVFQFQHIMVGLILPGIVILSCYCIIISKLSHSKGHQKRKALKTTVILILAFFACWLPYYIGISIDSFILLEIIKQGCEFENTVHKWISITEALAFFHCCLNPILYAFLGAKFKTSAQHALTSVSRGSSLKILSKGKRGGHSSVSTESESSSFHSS
Experimental: After reaction, suction was made toward the reaction solution by 96 well GF/C filter plate, and each well's radioactivity was measured by top count. As the radioactivity index of 100% when the test compound was not added, and 0% when 100 nM of non-radioisotope-labeled CXCL12 was added, the inhibitory activity of each test compound was measured.

[1] = tested on: MDA-MB-231 human breast cancer cells; experiment: Anti-metastatic activity, MDA-MB-231 cells implanted i.v. in SCID mice, lung metastasis; assay type: in vivo, CB-17 SCID mice; settings: 18.2 mg/kg/day by Alzet osmotic pump, 28 days after implantation
Experimental: MDA-MB-231 human breast cancer cells (10^6 cells) were implanted intravenously into the tails of five week-old female CB-17 SCID mice (Crea Japan, Inc.). 4Fbenzoyl-TN-14003 was prepared at 80 mg/mL in physiologic saline solution, was included into sustained-releasing osmotic pumps (Alzet pump, Alza Corporation, usable for 2 week sustained-release; the dose was equivalent to 18.2 mg/kg/day), and was intradermally loaded to the backs of the mice on the date immediately preceding the implantation. Further, 14 days after the implantation, Alzet pumps containing an equal dose of the drug were additionally loaded. To the control group, Alzet pumps injected with physiological saline solution were additionally loaded. 28 days after the implantation, the mice were dissected, about 2 mL of 0.2% Evans' Blue solution was injected through windpipes, and lungs were stained. The lungs were taken out, soaked in Bouin's liquid, stained and fixed. […] In the lungs of the control group, the yellow stained portions were evenly seen, and lung metastasis was observed. On the other hand, in the 4Fbenzoyl-TN-14003 administration group, yellow stained specimens were less.

[2] = tested on: human breast cancer MDA-MB-231 cells; experiment: Inhibition of CXCL12-induced breast cancer cell migration (Transwell); assay type: cell-based; settings: 10 nM of the antagonist; 100 nM CXCL12; 15 hours
Experimental: Transwell filter (polycarbonate filter, 8 μm diameter, Costar Company) was treated at 37° C. for 6 hours in 10 μg/mL fibronectin solution and air-dried. 100 nM of CXCL12 (R&D System Company) and 600 μL/well of buffer-A (0.1% bovine serum albumin, DMEM (GibcoBRL) containing 12 mM HEPES) containing the test compound were added to the lower chamber of the Transwell. The test compound and human breast cancer MDA-MB-231 cells (purchased from American Tissue Culture Collection), and 100 μL/well of buffer A containing 2×10^6 cells/mL were added to the upper chamber. […] Cutting off the filter part, adding 0.1 M sodium citrate/50% ethanol solution, and eluting crystal violet absorption at 550 nm was measured. […]
After 15 hours' incubation at 37° C. in 5% CO2 incubator, the upper surface of the filter was wiped and the cell was removed, and then the cell on the lower surface of the filter was fixed and stained with 25% methanol solution containing 0.5% crystal violet (Wako Pure Chemical Ind.), washed by distilled water and air-dried. Cutting off the filter part, adding 0.1 M sodium citrate/50% ethanol solution, and eluting crystal violet absorption at 550 nm was measured. […]

mouse splenocytes = settings: read-out: IC50 value, inhibition of SDF-1-induced migration of mouse splenocytes; SDF-1α 100 ng/mL; 2.5 hours
Experimental: Spleens were isolated from BALB/c mice (male, Charles River Japan, Inc.), converted to single cell suspensions, and splenocytes were prepared by crushing red blood cells.
SDF-1α (Peprotech, final concentration 100 ng/mL) was added to the lower layer of Transwell (pore size 5 μm), 1×10^6/well of the cells (100 μL) were added to the insert, and reacted at 37° C. for 2.5 hours. The cells were incubated with the drug at 37° C. for 30 minutes. Migrating reaction was made in the RPMI-1640 culture media containing 20 mmol/L HEPES, 0.5% BSA. The number of the cells migrated to the lower layer was counted by Coulter Counter. Similarly to the preceding clause, the inhibitory rate against the migration by the drug of each concentration and IC50 value were calculated.

Question: For N=C(N)NCCC[C@H](NC(=O)[C@@H]1CSSC[C@H](NC(=O)[C@H](Cc2ccc3ccccc3c2)NC(=O)[C@H](CCCNC(=N)N)NC(=O)[C@H](CCCNC(=N)N)NC(=O)c2ccc(F)cc2)C(=O)N[C@@H](Cc2ccc(O)cc2)C(=O)N[C@@H](CCCNC(N)=O)C(=O)N[C@@H](CCCCN)C(=O)N[C@H](CCCCN)C(=O)N2CCC[C@H]2C(=O)N[C@@H](Cc2ccc(O)cc2)C(=O)N[C@@H](CCCNC(=N)N)C(=O)N[C@@H](CCCNC(N)=O)C(=O)N1)C(N)=O [4F-benzoyl-TN14003, 4F-benzoyl-Arg-Arg-Nal-Cys-Tyr-Cit-Lys-DLys-Pro-Tyr-Arg-Cit-Cys-Arg-NH2] ({Benzoyl(4-F)}-RR[2Nal]CY[Cit]K[dK]PYR[Cit]CR-NH2; disulfide 4-13), which IC50 (CXCR4 receptor) is on record?
Answer: The IC50 was 0.99 nM.

Question: What about the “lung metastasis (eye observation of metastatic focus)” value [1] of the same compound?
Answer: Its value is “the metastasis was inhibited”.

Question: What about the “CXCL12-induced migration of MDA-MB-231 cells” value [2] of the same compound?
Answer: Its value is “inhibited”.

Question: And the IC50 (mouse splenocytes)?
Answer: Its IC50 is 0.54 nM.

— patent US8017585B2, “CXCR4 antagonist and use thereof” (priority 2002, dated 2011)
